From US20210246115A1 (Bioimics AB, priority 2017, published 2021)
≈ marks a conversion by molar mass, not a printed value. Where a name gives a salt, the structure may show the parent alone.

What was measured:
[1] = test system: Escherichia coli (ATCC25922); assay: MIC, broth microdilution (CLSI), Escherichia coli; details: Escherichia coli, ATCC25922, read-out: E. coli ATCC 25922 MIC, Table XIII
[2] = test system: Staphylococcus aureus (ATCC25923); assay: MIC, broth microdilution (CLSI), Staphylococcus aureus ATCC25923; details: Staphylococcus aureus, ATCC25923, read-out: S. aureus ATCC 25923 MIC
[3] = test system: E. coli RNase P RNA, M1 RNA; assay: Inhibition of bacterial RNase P activity, IC50 determination (cleavage of pATSerUG by M1 RNA); format: biochemical; details: NI: No inhibition

| SMILES | MIC [1] [µg/mL] | MIC [2] [µg/mL] | IC50 [3] [µM] | IC50 ([3]; hydrochloride salt) [µM] |
| --- | --- | --- | --- | --- |
| Cl.N[C@H]1CC[C@H](NC(=O)CCc2cn(Cc3ccccc3)c3ccccc23)CC1 [Compound 100, N-((1R,4R)-4-aminocyclohexyl)-3-(1-benzyl-1H-indol-3-yl)propanamide hydrochloride salt] | > 512 | 256 | 486 | – |
| Cc1cccc(C(CC(=O)N[C@H]2CC[C@H](CN)CC2)c2cn(CC3CCCCC3)c3ccc(Br)cc23)c1.Cl (stereo partly drawn) [Compound 206, N-((1R,4R)-4-(aminomethyl)cyclohexyl)-3-(5-bromo-1-(cyclohexylmethyl)-1H-indol-3-yl)-3-(m-tolyl)propanamide hydrochloride salt] | > 512 | 19 | 23 | – |
| Cl.N[C@H]1CC[C@H](NC(=O)CC(c2cn(CC3CCCCC3)c3ccccc23)C2CCCCC2)CC1 (stereo partly drawn) [Compound 162, N-((1R,4R)-4-aminocyclohexyl)-3-cyclohexyl-3-(1-(cyclohexylmethyl)-1H-indol-3-yl)propanamide hydrochloride salt] | 32 | 4 | 9 | – |
| Cc1cccc(C(CC(=O)N[C@H]2CC[C@H](N)CC2)c2cn(C(C)C)c3ccccc23)c1.Cl (stereo partly drawn) [Compound 154, N-((1R,4R)-4-aminocyclohexyl)-3-(1-isopropyl-1H-indol-3-yl)-3-(m-tolyl)propanamide hydrochloride salt] | 256 | 128 | 1230 | – |
| Cc1cccc(C(CC(=O)NC2CCC(N)CC2)c2cn(CC3CCCCC3)c3ccc(-c4ccnn4C)cc23)c1.Cl (centres unmarked) [Compound 183, N-(4-aminocyclohexyl)-3-(1-(cyclohexylmethyl)-5-(1-methyl-1H-pyrazol-5-yl)-1H-indol-3-yl)-3-(m-tolyl)propanamide hydrochloride salt] | 151 | 9 | 17 | – |
| Cc1cccc(C(CC(=O)NC2CCNCC2)c2cn(Cc3ccccc3)c3ncccc23)c1.Cl (centres unmarked) [Compound 70, 3-(1-benzyl-1H-pyrrolo[2,3-b]pyridin-3-yl)-N-(piperidin-4-yl)-3-(m-tolyl)propanamide hydrochloride salt] | > 512 | 250 | 1090 | – |
| O=C(CCc1cn(Cc2ccccc2)c2ccccc12)NCCC1CCNCC1 [Compound 88, 3-(1-benzyl-1H-indol-3-yl)-N-(2-(piperidin-4-yl)ethyl)propanamide hydrochloride salt] | – | – | 842 | – |
| Cc1cccc(C(CC(=O)NC2CCCCC2)c2cn(CC3CCCCC3)c3ccccc23)c1 (centres unmarked) [Compound 208, N-cyclohexyl-3-(1-(cyclohexylmethyl)-1H-indol-3-yl)-3-(m-tolyl)propanamide] | > 512 | > 512 | – | – |
| Cc1cccc(C(CC(=O)NCCC2CCNCC2)c2cn(Cc3ccccc3)c3ncncc23)c1 (centres unmarked) [Compound 94, 3-(7-benzyl-7H-pyrrolo[2,3-d]pyrimidin-5-yl)-N-(2-(piperidin-4-yl)ethyl)-3-(m-tolyl)propanamide hydrochloride salt] | – | – | 912 | – |
| Cl.Nc1ccc(NC(=O)CCc2cn(CC3CCCCC3)c3ccc(Br)cc23)cn1 [Compound 298, N-(6-aminopyridin-3-yl)-3-(5-bromo-1-(cyclohexylmethyl)-1H-indol-3-yl)propanamide hydrochloride salt] | > 512 | 15 | – | – |
| Cc1cccc(C(CC(=O)NC2CCNCC2)c2cn(CC3CCCCC3)c3cccnc23)c1 (centres unmarked) [Compound 98, 3-(1-(cyclohexylmethyl)-1H-pyrrolo[3,2-b]pyridin-3-yl)-N-(piperidin-4-yl)-3-(m-tolyl)propanamide hydrochloride salt] | – | – | 269 | – |
| Cl.N[C@H]1CC[C@H](NC(=O)CC(c2ccccc2)c2cn(CC3CCCCC3)c3ccccc23)CC1 (stereo partly drawn) [Compound 130, N-((1R,4R)-4-aminocyclohexyl)-3-(1-(cyclohexylmethyl)-1H-indol-3-yl)-3-phenylpropanamide hydrochloride salt] | 64 | 64 | – | – |
| O=C(CC(c1cscn1)c1cn(Cc2ccccc2)c2ccccc12)NCCC1CCNCC1 (centres unmarked) [Compound 95, 3-(1-benzyl-1H-indol-3-yl)-N-(2-(piperidin-4-yl)ethyl)-3-(thiazol-4-yl) propanamide hydrochloride salt] | – | – | – | 1300 |
| Cc1cccc(C(CC(=O)N[C@H]2CC[C@@H](N)CC2)c2cn(Cc3ccccc3)c3ccccc23)c1 (stereo partly drawn) [Compound 54, N-((1S,4S)-4-aminocyclohexyl)-3-(1-benzyl-1H-indol-3-yl)-3-(m-tolyl)propanamide hydrochloride salt] | – | – | 100 | – |
| Cc1cccc(C(CC(=O)N[C@H]2CC[C@H](O)CC2)c2cn(CC3CCCCC3)c3ccccc23)c1 (stereo partly drawn) [Compound 210, 3-(1-(cyclohexylmethyl)-1H-indol-3-yl)-N-((1R,4R)-4-hydroxycyclohexyl)-3-(m-tolyl)propanamide] | > 512 | > 512 | – | – |
| O=C(CC(c1cscn1)c1cn(Cc2ccccc2)c2ccccc12)NCCC1CCNCC1 (centres unmarked) [Compound 76, 3-(1-benzyl-1H-indol-3-yl)-N-(2-(piperidin-4-yl)ethyl)-3-(thiazol-4-yl) propanamide hydrochloride salt] | – | – | – | 197 |
| Cl.Cl.N[C@H]1CC[C@H](NCCC(c2cn(C3CCCCC3)c3ccccc23)C2CCCCC2)CC1 (stereo partly drawn) [Compound 378, ((1R,4R)-N1-(3-cyclohexyl-3-(1-cyclohexyl-1H-indol-3-yl)propyl)cyclohexane-1,4-diamine salt] | – | – | 22 | – |

| SMILES | MIC [1] [µg/mL] | MIC [2] [µg/mL] | IC50 [3] [µM] | IC50 ([3]; hydrochloride salt) [µM] |
| --- | --- | --- | --- | --- |
| O=C(CC(c1cscn1)c1cn(Cc2ccccc2)c2ccccc12)NC1CCNCC1 (centres unmarked) [Compound 96, 3-(1-benzyl-1H-indol-3-yl)-N-(piperidin-4-yl)-3-(thiazol-4-yl) propanamide hydrochloride salt] | – | – | 911 | – |
| Cc1cccc(C(CC(=O)NC2CCNC(=O)C2)c2cn(CC3CCCCC3)c3ccc(Br)cc23)c1 (centres unmarked) [Compound 296, 3-(5-bromo-1-(cyclohexylmethyl)-1H-indol-3-yl)-N-(2-oxopiperidin-4-yl)-3-(m-tolyl)propanamide hydrochloride salt] | > 512 | > 512 | – | – |
| CCn1cc(C(CC(=O)NC2CCNCC2)c2cccc(C)c2)c2ccccc21 (centres unmarked) [Compound 91, 3-(1-ethyl-1H-indol-3-yl)-N-(piperidin-4-yl)-3-(m-tolyl)propanamide hydrochloride salt] | – | – | 1080 | – |
| Cc1cccc(C(CC(=O)NCCN2CCCC2)c2cn(Cc3ccccc3)c3ccccc23)c1.Cl (centres unmarked) [Compound 3, 3-(1-benzyl-1H-indol-3-yl)-N-(2-(pyrrolidin-1-yl)ethyl)-3-(m-tolyl)propanamide hydrochloride salt] | > 512 | 32 | – | – |
| O=C(CCc1cn(Cc2ccccc2)c2ccccc12)NC1CCNCC1 [Compound 102, 3-(1-benzyl-1H-indol-3-yl)-N-(piperidin-4-yl)propanamide hydrochloride salt] | – | – | 950 | – |
| COc1ccccc1-c1ccc2c(c1)c(C(CC(=O)N[C@H]1CC[C@H](N)CC1)c1cccc(C)c1)cn2CC1CCCCC1.Cl (some centres unmarked) [Compound 219] | > 512 | 10 | – | – |
| Cc1cccc(C(CC(=O)NCC2CCNCC2)c2cn(Cc3ccccc3)c3ccccc23)c1 (centres unmarked) [Compound 79, 3-(1-benzyl-1H-indol-3-yl)-N-(piperidin-4-ylmethyl)-3-(m-tolyl)propanamide hydrochloride salt] | – | – | 129 | – |
| Cl.NC1CCC(NC(=O)Cc2cn(CC3CCCCC3)c3ccc(-c4cccc(OC(F)(F)F)c4)cc23)CC1 [Compound 240, N-((1S,4S)-4-aminocyclohexyl)-2-(1-(cyclohexylmethyl)-5-(3-(trifluoromethoxy)phenyl)-1H-indol-3-yl)acetamide hydrochloride salt] | 289 | 9 | – | – |
| Cc1cccc(C(CC(=O)Nc2ccc(N3CCCCC3)cc2)c2cn(CC3CCCCC3)c3ccccc23)c1.Cl (centres unmarked) [Compound 158, 3-(1-(cyclohexylmethyl)-1H-indol-3-yl)-N-(4-(piperidin-1-yl)phenyl)-3-(m-tolyl)propanamide hydrochloride salt] | > 512 | > 512 | – | – |
| CCOP(=O)(NCCC1CCN(C(=O)CC(c2cccc(C)c2)c2cn(CC3CCCCC3)c3ccccc23)CC1)OCC (centres unmarked) [Compound 227, diethyl (2-(1-(3-(1-(cyclohexylmethyl)-1H-indol-3-yl)-3-(m-tolyl)propanoyl)piperidin-4-yl)ethyl)phosphoramidate] | > 512 | 318 (≈ 511 µM) | – | – |
| N[C@H]1CC[C@@H](NC(=O)CC(c2cccnc2)c2cn(Cc3ccccc3)c3ccccc23)CC1 (some centres unmarked) [Compound 75, N-((1s,4s)-4-aminocyclohexyl)-3-(1-benzyl-1H-indol-3-yl)-3-(pyridin-3-yl)propanamide hydrochloride salt] | – | – | 343 | – |
| O=C(CC(c1cccnc1)c1cn(Cc2ccccc2)c2ccccc12)NCCC1CCNCC1 (centres unmarked) [Compound 93, 3-(1-benzyl-1H-indol-3-yl)-N-(2-(piperidin-4-yl)ethyl)-3-(pyridin-3-yl) propanamide hydrochloride salt] | – | – | 308 | – |
| COc1ccccc1-c1ccc2c(c1)c(C(CC(=O)N[C@H]1CC[C@H](N)CC1)c1cccc(C)c1)cn2CC1CCCCC1.Cl (some centres unmarked) [Compound 219, hydrochloride salt] | – | – | 7 | – |
| Cc1cccc(C(CC(=O)NC2CCNCC2)c2cn(Cc3ccccc3)c3cnccc23)c1 (centres unmarked) [Compound 90, 3-(1-benzyl-1H-pyrrolo[2,3-c]pyridin-3-yl)-N-(piperidin-4-yl)-3-(m-tolyl)propanamide hydrochloride salt] | – | – | 950 | – |
| Cc1cccc(C(CC(=O)Nc2ccc(N3CCNCC3)cc2)c2cn(CC3CCCCC3)c3ccccc23)c1.Cl (centres unmarked) [Compound 155, 3-(1-(cyclohexylmethyl)-1H-indol-3-yl)-N-(4-(piperazin-1-yl)phenyl)-3-(m-tolyl)propanamide hydrochloride salt] | > 512 | > 512 | – | – |
| O=C(CC(c1cn(Cc2ccccc2)c2ccccc12)C1CCNCC1)NCCC1CCNCC1 (centres unmarked) [Compound 77, 3-(1-benzyl-1H-indol-3-yl)-3-(piperidin-4-yl)-N-(2-(piperidin-4-yl)ethyl)propanamide hydrochloride salt] | – | – | 140 | – |
